Assay results as given in patent US10183931B2, “Rho kinase inhibitors” (priority 2012, dated 2019).
Entries after “also recorded” stand apart in the source; their conditions may differ.

Tests used:
ROCK1 = ROCK1 (Homo sapiens (Human), UniProt Q13464); conditions: read-out: ROCK1 IC50; Z′-LYTE, 5 uM ATP
Excerpt: (§1) Dose response curves for Rho-kinase inhibition were derived from a Invitrogen Z′-LYTE™ Kinase Assay Kit (Invitrogen catalog number PV3793). Purified active ROCK1 and ROCK2 were obtained from Invitrogen (catalog numbers ROCK1, PV3691 and ROCK2, PV3759). The kit components include a coumarin and fluorescein labeled peptide based on myosin light chain 2 ([sequence]), a proprietary protease containing development reagent and a proprietary Stop buffer used to terminate the development reaction. The inhibitory activities of compounds are measured according to the manufactures protocol. Briefly, decreasing concentrations of test compounds or the known ROCK inhibitor Y-27963, are added, from 10 uM to 2.56×10^−5 uM to reaction buffer containing 50 mM HEPES pH 7.5, 10 mM MgCl2, 5 mM EGTA, and 0.05% Brij-35 and of ROCK1 at 0.18 ug/mL or ROCK2 at 0.8 ug/mL in assay dilution buffer. […] STOP reagent is then added and the reaction and immediately the coumarin and fluorescein emission signals are read on a Tecan Infinite M1000 fluorescence plate reader (excitation: 400 nm; emission 445 and 520 nm, respectively). By comparing the emission ratios of the test samples against control samples, percent phosphorylation values are calculated and the concentration of inhibitor that produces 1/2 inhibition of kinase activity (IC50) is determined using Prism.

ROCK2 = ROCK2 (Homo sapiens (Human), UniProt O75116); conditions: read-out: ROCK2 IC50; Z′-LYTE, 12 uM ATP
Excerpt: as §1

human Tregs = test: Treg suppression of IL-17 secretion in CD4+CD25- effector T cells; format: cell-based; conditions: Tregs treated 3 hours; Treg:Teff 1:4 and 1:9
[1] = tested on: CD4+ T cells from RA patients; test: cytokine secretion ex vivo by CD3/CD28 stimulated CD4+ T cells from RA patients; format: cell-based, human
human CD4+ T cells [2] = test: cytokine secretion by anti-CD3/CD28 stimulated CD4+ T cells in vitro; format: cell-based; conditions: anti-CD3/CD28 stimulation
STAT3 phosphorylation = STAT3 phosphorylation in T cells; format: cell-based, human
human CD4+ T cells [3] = test: Foxp3+ cells among CD4+ T cells after Th17 skewing activation; format: cell-based; conditions: 5 days Th17 skewing activation
human CD4+ T cells [4] = test: T cell proliferation in response to TCR stimulation in vitro; format: cell-based
[5] = tested on: TGF-β-induced phosphorylation; test: TGF-β-induced phosphorylation of STAT3, MLC and SMAD2/3 in Tregs; format: cell-based, human
[6] = RA patients, ex vivo, TCR stimulation

Sequence of ROCK2 (O75116 5-554 limits assumed): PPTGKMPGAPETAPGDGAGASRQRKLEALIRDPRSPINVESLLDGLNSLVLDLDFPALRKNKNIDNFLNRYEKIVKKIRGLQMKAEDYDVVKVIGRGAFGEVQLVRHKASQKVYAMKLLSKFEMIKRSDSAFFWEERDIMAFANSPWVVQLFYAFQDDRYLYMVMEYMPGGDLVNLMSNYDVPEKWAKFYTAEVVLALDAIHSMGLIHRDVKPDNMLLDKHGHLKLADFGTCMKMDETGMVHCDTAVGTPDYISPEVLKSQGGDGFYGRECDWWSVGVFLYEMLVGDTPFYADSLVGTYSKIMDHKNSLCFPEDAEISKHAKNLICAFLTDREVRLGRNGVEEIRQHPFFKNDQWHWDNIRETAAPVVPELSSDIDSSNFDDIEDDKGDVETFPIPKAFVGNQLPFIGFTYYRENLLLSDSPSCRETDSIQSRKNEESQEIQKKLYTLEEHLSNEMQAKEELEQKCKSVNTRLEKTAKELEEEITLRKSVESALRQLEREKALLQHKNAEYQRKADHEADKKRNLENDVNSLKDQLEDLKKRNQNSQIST
Sequence of ROCK1 (Q13464 1-535 limits assumed): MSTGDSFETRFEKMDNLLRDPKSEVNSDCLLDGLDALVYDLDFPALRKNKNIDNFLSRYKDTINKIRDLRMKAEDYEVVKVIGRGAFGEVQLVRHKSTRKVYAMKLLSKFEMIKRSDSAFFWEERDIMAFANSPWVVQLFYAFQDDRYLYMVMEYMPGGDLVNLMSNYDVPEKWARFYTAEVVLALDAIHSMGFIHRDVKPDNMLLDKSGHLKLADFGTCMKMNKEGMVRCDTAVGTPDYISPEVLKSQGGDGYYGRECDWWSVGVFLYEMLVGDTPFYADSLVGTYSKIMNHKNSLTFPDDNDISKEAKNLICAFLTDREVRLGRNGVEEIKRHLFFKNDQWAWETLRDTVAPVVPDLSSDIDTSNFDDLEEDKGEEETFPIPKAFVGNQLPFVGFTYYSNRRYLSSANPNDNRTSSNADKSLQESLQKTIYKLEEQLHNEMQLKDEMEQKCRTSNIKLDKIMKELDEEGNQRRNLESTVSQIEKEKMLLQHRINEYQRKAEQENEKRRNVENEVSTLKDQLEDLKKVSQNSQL

IC50 (ROCK1)	IC50 (ROCK2)	Compound	ability of Tregs to suppress IL-17 secretion in CD4+CD25- effector T cells (human Tregs)	frequencies of IL-17 and IFN-γ-producing cells ([1]; 2 RA patients, intracellular staining)	secretion of IFN-γ [1, 6]	secretion of IL-17 [1, 6]	secretion of IL-21 [1, 6]	inhibition of IFN-γ secretion (human CD4+ T cells [2])	inhibition of IL-2 secretion (human CD4+ T cells [2])	IL-17 secretion (human CD4+ T cells [2]; dose-dependent)	IL-21 secretion (human CD4+ T cells [2]; dose-dependent)	phosphorylation of STAT3 (STAT3 phosphorylation; T cells, two experimental designs)	STAT3 phosphorylation (STAT3 phosphorylation; Th17-skewing conditions 5 days, then treatment 3 hours)	percentage of Foxp3+ cells (human CD4+ T cells [3])	ability to proliferate in response to TCR stimulation (human CD4+ T cells [4])	phosphorylation of SMAD2/3 [5]	TGF-β-induced MLC phosphorylation ([5]; dose-dependent)	TGF-β-induced STAT3 phosphorylation ([5]; dose-dependent)
> 2 µM	> 5.5 µM	CC(N)c1cccc(-c2nccc(Nc3ccc4[nH]ncc4c3)n2)c1 (centres unmarked) [Example 147, N-(2-(3-(1-aminoethyl)phenyl)pyrimidin-4-yl)-1H-indazol-5-amine]	–	–	–	–	–	–	–	–	–	–	–	–	–	–	–	–
–	–	CC(C)NC(=O)COc1cccc(-c2nc(Nc3ccc4[nH]ncc4c3)c3ccccc3n2)c1 [KD025]	significantly increased	significantly reduced	inhibits; also recorded: significantly down-regulated	inhibits; also recorded: significantly down-regulated	inhibits; also recorded: significantly down-regulated	less robust and significant only at high dose (10 μM)	observed only at the highest concentration (10 μM)	inhibits; also recorded: significantly inhibited	inhibits; also recorded: significantly inhibited	inhibits; also recorded: significantly down-regulates	reduced	significantly increased	inhibits; also recorded: down-regulated	remains intact	down-regulates	down-regulates
> 10 µM	> 10 µM	CC(C)NC(=O)COc1cccc(-c2nc(Nc3ccc4[nH]ncc4c3)cc(C(F)(F)F)n2)c1 [Example 169]	–	–	–	–	–	–	–	–	–	–	–	–	–	–	–	–
